Results reported in patent US10501464B2, “7-oxo-6-(sulfooxy)-1,6-diazabicyclo[3.2.1]octane-2-carboxamide containing compounds and their use in treating bacterial infections” (WOCKHARDT LIMITED, priority 2015, dated 2019).
Where two headings read alike, the source gives them in different places.

Assays:
Assay in all cases: Antibacterial activity, MIC by agar dilution (CLSI)
Format in all cases: cell-based
K. pneumoniae H 521 = details: compound tested alone
Method: (§1) The biological activity of representative compounds according to the invention against various bacterial strains was investigated. In a typical study, overnight grown bacterial cultures were diluted appropriately and inoculated on the agar media containing doubling dilutions of the test compounds. Observations for growth or no growth was performed after 16-20 hours of incubation at 35±2° C. in the ambient air. The overall procedure was performed as per Clinical and Laboratory Standards Institute (CLSI) recommendations, (Clinical and Laboratory Standards Institute (CLSI), Performance Standards for Antimicrobial Susceptibility Testing, 20th Informational Supplement, M07-A9, Volume 32, No. 2, 2012). Molten Mueller Hinton Agar (BD, USA) containing serial dilutions of each antibacterial agent were poured on to the plates and allowed to solidify. Appropriate suspensions from the freshly grown cultures were prepared in normal saline so that about 10^4CFU/spot of the organism was delivered on to the drug containing agar plates using automated multipoint inoculator (Mast, UK). The plates were incubated in Biochemical oxygen demand (BOD) incubator at 37° C. for 18 hours and then examined for growth.
(§2) Method for the determination of MIC: The Minimum Inhibitory Concentration (MIC) determination for the combinations was carried out in Muller Hinton Agar (MHA) (BD, USA) according to Clinical and Laboratory Standards Institute (CLSI) recommendations, (Clinical and Laboratory Standards Institute (CLSI), Performance Standards for Antimicrobial Susceptibility Testing, 20th Informational Supplement, M 100-S20, Volume 30, No. 1, 2010). In short, the test strains were adjusted to deliver about 10^4CFU per spot with a multipoint inoculator (Applied Quality Services, UK). The plates were poured with MHA containing doubling concentration range of representative compounds according to present invention. The plates were inoculated and were incubated at 35° C. for 18 hour. […] The Table 2 depicts the antibacterial activity profile of compounds according to present invention against various multidrug resistant bacterial strains.

E. coli 13352 = details: compound tested alone
Method: as §1, §2

E. coli 13353 = details: compound tested alone
Method: as §1, §2

E. coli M 138 = details: compound tested alone
Method: as §1, §2

K. pneumoniae H 523 = details: compound tested alone
Method: as §1, §2

P. mirabilis S 137B = details: compound tested alone
Method: as §1, §2

E. coli 13351 = details: compound tested alone
Method: as §1, §2

E. coli M 49 = details: compound tested alone
Method: as §1, §2

K. pneumoniae H 525 = details: compound tested alone
Method: as §1, §2

E. coli M 36 = details: compound tested alone
Method: as §1, §2

E. coli 7 MP = details: compound tested alone
Method: as §1, §2

K. pneumoniae H 522 = details: compound tested alone
Method: as §1, §2

[1] = test system: K. pneumoniae ATCC 700603
Method: as §1, §2

E. coli M 50 = details: compound tested alone
Method: as §1, §2

E. coli H 483 = details: Escherichia coli, H483, compound tested alone, read-out: MIC
Method: as §1, §2

[2] = Klebsiella pneumoniae, H521, K. pneumoniae H 521, read-out: MIC
[3] = Escherichia coli, 13352, E. coli 13352, read-out: MIC
[4] = Escherichia coli, 13353, E. coli 13353, read-out: MIC
[5] = Escherichia coli, M138, E. coli M 138, read-out: MIC
[6] = Klebsiella pneumoniae, H523, K. pneumoniae H 523, read-out: MIC
[7] = Proteus mirabilis, S137B, read-out: MIC
[8] = Escherichia coli, 13351, E. coli 13351, read-out: MIC
[9] = Escherichia coli, M49, E. coli M 49, read-out: MIC
[10] = Klebsiella pneumoniae, H525, K. pneumoniae H 525, read-out: MIC
[11] = Escherichia coli, M36, E. coli M 36, read-out: MIC
[12] = Escherichia coli, 7MP, read-out: MIC
[13] = Klebsiella pneumoniae, H522, K. pneumoniae H 522, read-out: MIC
[14] = Klebsiella pneumoniae, ATCC700603, compound tested alone, read-out: MIC
[15] = Escherichia coli, M50, E. coli M 50, read-out: MIC

| SMILES | MIC (K. pneumoniae H 521; [2]) [µg/mL] | MIC (E. coli 13352; [3]) [µg/mL] | MIC (E. coli 13353; [4]) [µg/mL] | MIC (E. coli M 138; [5]) [µg/mL] | MIC (K. pneumoniae H 523; [6]) [µg/mL] | MIC (P. mirabilis S 137B; [7]) [µg/mL] | MIC (E. coli 13351; [8]) [µg/mL] | MIC (E. coli M 49; [9]) [µg/mL] | MIC (K. pneumoniae H 525; [10]) [µg/mL] | MIC (E. coli M 36; [11]) [µg/mL] | MIC (E. coli 7 MP; [12]) [µg/mL] | MIC (K. pneumoniae H 522; [13]) [µg/mL] | MIC [1, 14] [µg/mL] | MIC (E. coli M 50; [15]) [µg/mL] | further results |
| --- | --- | --- | --- | --- | --- | --- | --- | --- | --- | --- | --- | --- | --- | --- | --- |
| Nc1cn([C@@H]2CN[C@H](CONC(=O)[C@@H]3CC[C@@H]4CN3C(=O)N4OS(=O)(=O)O)C2)cn1 [Example 16] | 4 | 2 | 2 | 2 | 4 | > 32 | 2 | 8 | 4 | 2 | 8 | 4 | > 32 | 2 | MIC (E. coli H 483): > 32 µg/mL |
| O=C(NNC(=O)[C@@H]1CC[C@@H]2CN1C(=O)N2OS(=O)(=O)O)C1C[C@H](n2cccn2)CN1 (stereo partly drawn) [Example 27] | 4 | 1 | 1 | 2 | 4 | > 32 | 1 | > 32 | 4 | 1 | 8 | 4 | > 32 | 1 |  |
| O=C(NOC[C@@H]1C[C@H](n2ccnc2)CN1)[C@@H]1CC[C@@H]2CN1C(=O)N2OS(=O)(=O)O [Example 10] | 2 | 2 | 1 | 1 | 2 | > 32 | 2 | 4 | 2 | 1 | 4 | 2 | > 32 | 1 | MIC (E. coli H 483): > 32 µg/mL |
| O=C(NOC[C@@H]1C[C@H](n2ccnn2)CN1)[C@@H]1CC[C@@H]2CN1C(=O)N2OS(=O)(=O)O [Example 6] | 2 | 2 | 1 | 1 | 2 | > 32 | 2 | 8 | 2 | 1 | 4 | 2 | > 32 | 1 |  |
| O=C(NNC(=O)[C@@H]1CC[C@@H]2CN1C(=O)N2OS(=O)(=O)O)[C@@H]1C[C@@H](n2cccn2)CN1 [Example 3] | 4 |  |  | 2 | 4 | > 32 |  |  | 4 | 2 | 8 | 4 | > 32 |  | MIC (E. coli 13352; E. coli 13352): 1 µg/mL; MIC (E. coli 13353; E. coli 13353): 1 µg/mL; MIC (E. coli 13351; E. coli 13351): 1 µg/mL; MIC (E. coli M 49; E. coli M 49): 4 µg/mL; MIC (E. coli M 50; E. coli M 50): 1 µg/mL |
| O=C(NNC(=O)[C@@H]1CC[C@@H]2CN1C(=O)N2OS(=O)(=O)O)[C@@H]1C[C@H](n2nccn2)CN1 [Example 25] | 4 | 1 | 0.5 | 2 | 4 | > 32 | 1 | 8 | 8 | 1 | 2 | 4 | > 32 | 1 |  |
| O=C(NOC[C@@H]1C[C@H](n2cncn2)CN1)[C@@H]1CC[C@@H]2CN1C(=O)N2OS(=O)(=O)O [Example 9] | 2 | 2 | 1 | 1 | 2 | > 32 | 2 | 4 | 2 | 1 | 2 | 2 | > 32 | 1 |  |
| O=C(NNC(=O)[C@@H]1CC[C@@H]2CN1C(=O)N2OS(=O)(=O)O)[C@@H]1C[C@H](n2ncnn2)CN1 [Example 23] | 4 | 2 | 1 | 2 | 4 | > 32 | 2 | 8 | 4 | 1 | 4 | 4 | > 32 | 1 |  |
| O=C(NOC[C@H]1C[C@H](n2ccnc2)CN1)[C@@H]1CC[C@@H]2CN1C(=O)N2OS(=O)(=O)O [Example 7] | 2 | 1 | 0.5 | 1 | 2 | > 32 | 1 | 4 | 2 | 0.5 | 2 | 2 | > 32 | 1 |  |
| Cc1nnn([C@@H]2CN[C@H](C(=O)NNC(=O)[C@@H]3CC[C@@H]4CN3C(=O)N4OS(=O)(=O)O)C2)n1 [Example 31] | 16 | 4 | 4 | 8 | 16 | > 32 | 4 | > 32 | 8 | 4 | 16 | 16 | > 32 | 8 |  |
| O=C(NNC(=O)[C@@H]1CC[C@@H]2CN1C(=O)N2OS(=O)(=O)O)[C@@H]1C[C@H](n2cncn2)CN1 [Example 29] | 2 | 1 | 0.5 | 1 | 2 | > 32 | 1 | 4 | 2 | 0.5 | 2 | 2 | > 32 | 0.5 |  |
| O=C(NNC(=O)[C@@H]1CC[C@@H]2CN1C(=O)N2OS(=O)(=O)O)[C@@H]1C[C@@H](n2ccnc2)CN1 [Example 33] | 8 | 4 | 4 | 4 | 4 | > 32 | 4 | 16 | 4 | 2 | 8 | 4 | > 32 | 2 |  |
| O=C(NOC[C@@H]1CC(n2cccn2)CN1)[C@@H]1CC[C@@H]2CN1C(=O)N2OS(=O)(=O)O (stereo partly drawn) [Example 8] | 1 | 1 | 0.5 | 1 | 1 | > 32 | 1 | 4 | 1 | 0.5 | 2 | 1 | > 32 | 1 |  |
| O=C(NNC(=O)[C@@H]1CC[C@@H]2CN1C(=O)N2OS(=O)(=O)O)[C@@H]1C[C@@H](n2cccn2)CN1 [Example 32] |  |  |  |  |  |  |  |  |  |  |  |  |  |  | MIC (K. pneumoniae H 521; K. pneumoniae H 521): 8 µg/mL; MIC (E. coli 13352; E. coli 13352): 4 µg/mL; MIC (E. coli 13353; E. coli 13353): 4 µg/mL; MIC (E. coli M 138; E. coli M 138): 4 µg/mL; MIC (K. pneumoniae H 523; K. pneumoniae H 523): 8 µg/mL; MIC (P. mirabilis S 137B): >32 µg/mL; MIC (E. coli 13351; E. coli 13351): 4 µg/mL; MIC (E. coli M 49; E. coli M 49): 32 µg/mL; MIC (K. pneumoniae H 525; K. pneumoniae H 525): 8 µg/mL; MIC (E. coli M 36; E. coli M 36): 4 µg/mL; MIC (E. coli 7 MP): 16 µg/mL; MIC (K. pneumoniae H 522; K. pneumoniae H 522): 8 µg/mL; MIC ([1]; compound tested alone): >32 µg/mL; MIC (E. coli M 50; E. coli M 50): 4 µg/mL |
